# In patent US20260325653A1, “HETEROBIFUNCTIONAL SMALL MOLECULES THAT DEUBIQUITINYLATE AND STABILIZE TARGET PROTEINS BY RECRUITING USP7” (ICAHN SCHOOL OF MEDICINE AT MOUNT SINAI, priority 2023, published 2026):
# System: CFTR mRNA
# Test: RT-qPCR analysis of CFTR mRNA levels in CFBE41o− 4.7 ΔF508-CFTR cells
# Type: cell-based, human
# Conditions: 10 μM, 24 h
structure (smiles),measurement,value
"Cc1ccc(NC(=O)C2(c3ccc4c(c3)OC(F)(F)O4)CC2)nc1-c1cccc(C(=O)NCCCCCCCCCNC(=O)CNCc2ccc(-c3c4ncn(CC5(O)CCN(C(=O)C[C@@H](C)c6ccccc6)CC5)c(=O)c4nn3C)cc2)c1 [MS6869, (R)-3-(6-(1-(2,2-difluorobenzo[d][1,3]dioxol-5-yl)cyclopropane-1-carboxamido)-3-methylpyridin-2-yl)-N-(9-(2-((4-(6-((4-hydroxy-1-(3-phenylbutanoyl)piperidin-4-yl)methyl)-2-methyl-7-oxo-6,7-dihydro-2H-pyrazolo[4,3-d]pyrimidin-3-yl)benzyl)amino)acetamido)nonyl)benzamide]",mRNA levels of CFTR,do not affect the mRNA levels of CFTR
